Source: patent publication US6605424B1, “Method of detecting inhibitors of agonist-specific desensitization” (Duke University, priority 1989, dated 2003)
Values belong to the molecule of their own block, whether it stands above or below them. No end group written: not given here.

Experiments:
[1] = biological target: T1, βAR kinase (Bos taurus, UniProt P21146); test: Reversal of heparin inhibition of βAR kinase by polycations; format: biochemical, bovine; conditions: read-out: EC50 for reversal of heparin inhibition; in the presence of 1.1 μM heparin
T1 construct: βAR kinase was purified from bovine cerebral cortex; from tissue; host or cells: bovine cerebral cortex
T1 sequence (P21146 1-689): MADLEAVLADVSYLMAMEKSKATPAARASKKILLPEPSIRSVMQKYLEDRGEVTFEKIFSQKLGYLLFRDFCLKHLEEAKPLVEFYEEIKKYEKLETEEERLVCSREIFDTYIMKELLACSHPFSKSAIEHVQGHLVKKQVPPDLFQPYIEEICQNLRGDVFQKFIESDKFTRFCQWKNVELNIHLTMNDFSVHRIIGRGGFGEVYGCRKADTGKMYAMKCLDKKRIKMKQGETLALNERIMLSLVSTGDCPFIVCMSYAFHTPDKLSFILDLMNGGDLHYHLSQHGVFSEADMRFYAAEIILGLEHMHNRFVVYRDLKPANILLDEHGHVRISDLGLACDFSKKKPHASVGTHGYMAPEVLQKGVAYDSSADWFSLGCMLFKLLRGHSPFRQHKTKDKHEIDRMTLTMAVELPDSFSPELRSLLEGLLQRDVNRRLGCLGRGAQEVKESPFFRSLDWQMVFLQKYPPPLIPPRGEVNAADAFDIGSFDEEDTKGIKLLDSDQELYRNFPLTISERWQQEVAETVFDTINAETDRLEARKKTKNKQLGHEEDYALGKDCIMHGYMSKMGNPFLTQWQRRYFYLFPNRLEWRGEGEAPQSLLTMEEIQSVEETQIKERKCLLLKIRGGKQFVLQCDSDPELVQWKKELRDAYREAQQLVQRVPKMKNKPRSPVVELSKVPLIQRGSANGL
Procedure: (§1) Urea-treated rod outer segments were phosphorylated with βAR kinase as follows. Urea-treated rod outer segments (˜4 μg of rhodopsin) were incubated with βAR kinase (˜0.1 μg) for 10-15 min at 30° C. in the presence of 40 mM Tris-HCl, pH 7.4, 10 mM NaCl, 5 mM MgCl2, 1.5 mM EDTA, and 65 μM ATP (˜1 cpm/fmol) (total reaction volume was 40 μl). Reactions were stopped by the addition of 40 μl of sodium dodecyl sulfate sample buffer (see below) followed by sodium dodecyl sulfate-polyacrylamide gel electrophoresis. After autoradiography, the phosphorylated rhodopsin bands were excised and counted.

[2] = biological target: T1, βAR kinase; test: Phosphorylation of rhodopsin (urea-treated rod outer segments) by βAR kinase; format: biochemical, bovine; conditions: read-out: IC50 (concentration of compound which gave 50% inhibition of βAR kinase); rhodopsin as substrate
Procedure: (§2) βAR kinase was purified from bovine cerebral cortex by modification of procedure of Benovic et al (J. Biol. Chem. (1987) 262:9026-9032). Briefly, 250 g of bovine cerebral cortex were homogenized with a Brinkmann tissue disrupter and centrifuged (40,000×g, 30 min). The supernatant was then precipitated with 13-26% ammonium sulfate. This material was initially chromatographed on a Ultrogel AcA34 column equilibrated with 5 mM Tris-HCl, pH 7.5, 2 mM EDTA, 10 μg/ml leupeptin, 5 μg/ml pepstatin, 10 μg/ml benzamidine, 0.2 mM phenylmethylsulfonyl fluoride (buffer A). The peak activity was diluted with an equal volume of buffer A containing 0.04% Triton X-100 before being applied to a DEAE-Sephacel column. Elution was accomplished with a 0-80 mM NaCl gradient in buffer A containing 0.02% Triton X-100. The peak activity was then applied to a CM-Fractogel column and eluted with a 0-100 mM NaCl gradient in buffer A containing 0.02% Triton X-100. The purified kinase is stable at 4° C. for several months. For these studies the βAR kinase preparations were >75% pure.
(§3) Rod outer segments were prepared from bovine retinas by stepwise sucrose gradient centrifugation (Wilden et al Biochemistry (1982) 21:3014-3022). Rhodopsin kinase-free rod outer segments were prepared by treatment with 5 M urea (Shichi et al J. Biol. Chem. (1978) 253:7040-7046) and consisted of ˜95% rhodopsin, as assessed by Coomassie Blue staining of sodium dodecyl sulfate-polyacrylamide gels.
as §1
Sodium dodecyl sulfate-polyacrylamide gel electrophoresis was performed by the method of Laemmli (Nature (1970) 227:680-685) using 10% homogeneous polyacrylamide slab gels. Sample buffer contained 8% sodium dodecyl sulfate, 10% glycerol, 5% 3-mercaptoethanol, 25 mM Tris-HCl, pH 6.5, and 0.003% bromphenol blue. After electrophoresis, gels were dried with a Bio-Rad gel dryer prior to autoradiography.

[3] = biological target: protein kinase A (Homo sapiens, UniProt P17612); test: Peptides as substrates for protein kinase A; format: biochemical
[4] = test system: β2ARs in permeabilized A431 cells; test: Desensitization of β2ARs in permeabilized A431 cells; format: cell-based, human
Procedure: Permeabilization of cells was accomplished as follows. Human epidermoid carcinoma A431 cells were grown to about 95% confluence in Dulbecco's modified Eagle's medium supplemented with 10% fetal calf serum. Cells were harvested with collagenase, washed three times with calcium-free phosphate-buffered saline (PBS), then washed twice in 150 mM potassium glutamate/10 mM Hepes/5 mM EGTA/7 mM MgCl2, pH 7.1 (KG buffer), and finally resuspended in KG buffer supplemented with 5 mM glucose and 2 mM ATP (KG-A buffer) at a density of 4×10^7 cells per ml.
At 4×10^7 cells per ml, about 0.015% digitonin was necessary to achieve permeabilization of >95% cells as assessed by staining with trypan blue. In all experiments, digitonin was added stepwise until >95% of the cells were trypan blue positive.

[5] = biological target: T1, βAR kinase; test: Phosphorylation of purified reconstituted β2ARs by purified βAR kinase (Example II); format: biochemical, bovine
Procedure: FIG. 7. […] (Inset) Relevant section of a representative autoradiogram. Data are means±SEM of three independent experiments. […] Desensitization was measured as the percent loss of stimulation by 10 μM (−)-isoproterenol of adenylyl cyclase activity in membranes. […] Data are means±SEM of four independent experiments.
Purified β2ARs were inserted into phosphatidylcholine vesicles by chromatography on Extracti-gel, followed by polyethylene glycol treatment and centrifugation at 280,000×g for 90 min (Cerione et al (1984) Biochemistry 23:4519-4525). Phosphorylation of the reconstituted receptors by purified βAR kinase was done in the presence of 50 μM (−)-isoproterenol as described (Benovic et al (1987) J. Biol. Chem. 262:9026-9032). Subsequently, the samples were subjected to sodium dodecyl sulfate polyacrylamide gel electrophoresis on 10% gels (Laemmli (1970) Nature 227:680-685). The phosphorylated β2ARs were visualized by autoradiography, and the corresponding bands were cut out and their content of ^32P quantified.

[6] = biological target: protein kinase C and cyclic nucleotide-dependent protein kinases; conditions: cited from earlier work
[7] = substrate: CC[C@H](C)[C@H](NC(=O)[C@H](Cc1ccc(O)cc1)NC(=O)[C@H](CC(N)=O)NC(=O)[C@H](CC(C)C)NC(=O)[C@@H]1CCCN1C(=O)[C@@H](NC(=O)[C@H](CCCNC(=N)N)NC(=O)[C@H](CC(C)C)NC(=O)[C@H](CCCCN)NC(=O)[C@H](CCCCN)NC(=O)[C@H](Cc1c[nH]cn1)NC(=O)[C@H](CCC(N)=O)NC(=O)[C@@H](NC(=O)[C@@H](NC(=O)[C@@H](N)C(C)C)[C@@H](C)O)C(C)C)[C@@H](C)O)C(=O)O; test: Phosphorylation of rhodopsin (urea-treated rod outer segments) by βAR kinase; format: biochemical, bovine; conditions: other: rhodopsin as substrate, absence of heparin; 30.0 °C
Procedure: as §2, with “The peak activity was then applied to a CM-Fractogel column and eluted with a 0-100 mM NaCl gradient in buffer A containing 0.02% Triton X-100. The purified kinase is stable at 4° C. for several months. For these studies the βAR kinase preparations were >75% pure.” left out
as §3
Urea-treated rod outer segments were phosphorylated with βAR kinase as follows. […] After autoradiography, the phosphorylated rhodopsin bands were excised and counted. […]

Molecule: polylysine
EC50 [1]: ~2.8 µM | IC50 [2]: ~69 µM

substrate for protein kinase A [3]: serve as substrates for protein kinase A
Molecule: QELLCLRRSSSKAYGNGYS [CT-1 (337-355)]

inhibition at 1 µM ([5]; 1 μM): 3 ± 4% | inhibition at 10 µM ([5]; 10 μM): 2 ± 7% | Inhibition of βAR kinase, % ([5]; 100 μM): 19 ± 6% | inhibition at 100 µM ([5]; 100 μM): ~20%
Molecule: CC1CNCCN1S(=O)(=O)c1cccc2cnccc12 (stereo not shown) [Peptide H7, 1-5(isoquinolinesulfonyl)-2-methylpiperazine]
Inhibition of Desensitization, % ([4]; 100 μM): 22 ± 14% | inhibition at 1 µM ([4]; Homo sapiens, A-431, 1 μM): 0% | inhibition at 10 µM ([4]; Homo sapiens, A-431, 10 μM): 7 ± 5% | inhibition at 100 µM ([4]; Homo sapiens, A-431, 100 μM): ~20% | Ki [6]: ~5 µM

B1: βAR kinase (Bos taurus) (protein)
chain: T1 sequence (P21146 1-689)
notes: βAR kinase was purified from bovine cerebral cortex; from tissue; host or cells: bovine cerebral cortex
Km [7]: 5.3 µM
